According to the supplement of paper PMC10307832:

Experiments:
Test in all cases: relative viability (nuclei count vs DMSO), 5 days (fraction); higher = more cells survive
Doxorubicin + Navitoclax = compound: COc1cccc2c1C(=O)c1c(O)c3c(c(O)c1C2=O)C[C@@](O)(C(=O)CO)C[C@@H]3O[C@H]1C[C@H](N)[C@H](O)[C@H](C)O1 [Doxorubicin] + CC1(C)CCC(c2ccc(Cl)cc2)=C(CN2CCN(c3ccc(C(=O)NS(=O)(=O)c4ccc(N[C@H](CCN5CCOCC5)CSc5ccccc5)c(S(=O)(=O)C(F)(F)F)c4)cc3)CC2)C1 [Navitoclax] (partner 0.5 µM)
Procedure, shortened: (§1)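 Lung cancer cell lines in 1536-well plates were dosed by pin tool the day after seeding, either with one drug alone or with a fixed anchor-drug dose plus five library-drug doses (not always all listed) in √10 steps. After 5 days, cells were fixed and their nuclei stained in one step (final 0.05% Triton X-100, 1% formaldehyde, 1 ug/ml Hoechst), then counted on 4× images. Relative viability is the nuclei count in treated wells divided by that in vehicle wells. Values are medians of duplicate plates.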

BAY61-3606 + Vorinostat = compound: COC1=C(C=C(C=C1)C2=CC3=NC=CN3C(=N2)NC4=C(C=CC=N4)C(=O)N)OC [BAY61-3606] + O=C(CCCCCCC(=O)Nc1ccccc1)NO [Vorinostat] (partner 1 µM)
Procedure, shortened: as §1

Doxorubicin + Trametinib = compound: COc1cccc2c1C(=O)c1c(O)c3c(c(O)c1C2=O)C[C@@](O)(C(=O)CO)C[C@@H]3O[C@H]1C[C@H](N)[C@H](O)[C@H](C)O1 [Doxorubicin] + CC(=O)Nc1cccc(-n2c(=O)n(C3CC3)c(=O)c3c(Nc4ccc(I)cc4F)n(C)c(=O)c(C)c32)c1 [Trametinib] (partner 0.02 µM)
Procedure, shortened: as §1

BAY61-3606 + Foretinib = compound: COC1=C(C=C(C=C1)C2=CC3=NC=CN3C(=N2)NC4=C(C=CC=N4)C(=O)N)OC [BAY61-3606] + COc1cc2c(Oc3ccc(NC(=O)C4(C(=O)Nc5ccc(F)cc5)CC4)cc3F)ccnc2cc1OCCCN1CCOCC1 [Foretinib] (partner 0.25 µM)
Procedure, shortened: as §1

Cell Line	relative viability (Doxorubicin + Navitoclax; first compound 0.003162 µM)	relative viability (Doxorubicin + Navitoclax; first compound 0.01 µM)	relative viability (Doxorubicin + Navitoclax; first compound 0.03162 µM)	relative viability (Doxorubicin + Navitoclax; first compound 0.1 µM)	relative viability (BAY61-3606 + Vorinostat; first compound 0.02 µM)	relative viability (BAY61-3606 + Vorinostat; first compound 0.06325 µM)	relative viability (BAY61-3606 + Vorinostat; first compound 0.2 µM)	relative viability (BAY61-3606 + Vorinostat; first compound 0.6325 µM)	relative viability (BAY61-3606 + Vorinostat; first compound 2 µM)	relative viability (Doxorubicin + Trametinib; first compound 0.003162 µM)	relative viability (Doxorubicin + Trametinib; first compound 0.01 µM)	relative viability (Doxorubicin + Trametinib; first compound 0.03162 µM)	relative viability (Doxorubicin + Trametinib; first compound 0.1 µM)	relative viability (BAY61-3606 + Foretinib; first compound 0.02 µM)	relative viability (BAY61-3606 + Foretinib; first compound 0.06325 µM)	relative viability (BAY61-3606 + Foretinib; first compound 0.2 µM)	relative viability (BAY61-3606 + Foretinib; first compound 0.6325 µM)	relative viability (BAY61-3606 + Foretinib; first compound 2 µM)	relative viability (Doxorubicin + Navitoclax; first compound 0.001 µM)	relative viability (Doxorubicin + Trametinib; first compound 0.001 µM)
LOU-NH91	0.561	0.711	0.444	0.405	1.03	0.796	0.871	0.915	0.858	0.724	0.766	0.766	0.654	0.95	0.916	0.985	0.976	0.823	–	–
LU99A	0.919	0.867	0.554	0.801	0.548	0.399	0.48	0.434	0.401	0.614	0.628	0.592	0.635	0.915	0.656	0.858	0.63	0.526	0.783	0.521
LXF-289	0.939	0.873	0.983	0.944	0.802	0.839	0.666	0.849	0.782	0.697	0.675	0.723	0.738	0.966	0.971	0.978	0.988	0.944	0.935	0.666
NCI-H23	0.686	0.767	0.698	0.926	0.542	0.701	0.53	0.553	0.501	0.45	0.344	0.334	0.45	1.05	0.907	1.01	1.03	0.874	–	0.326
NCI-H322M	1.19	1.15	1.31	1.26	0.985	0.872	0.974	0.866	0.74	0.565	0.52	0.542	0.498	1.12	0.91	0.981	1.03	0.831	1.18	0.478
NCI-H441	0.688	0.351	0.308	0.423	0.997	0.88	0.916	0.803	0.678	0.471	0.45	0.205	0.188	0.979	1.12	1.15	0.862	0.754	–	0.426
NCI-H460	1.18	0.945	0.0444	0.0158	0.786	0.862	0.709	0.65	0.447	0.0856	0.0422	0.0236	0.0041	1.05	1	1.05	0.973	0.945	1.07	0.138
NCI-H520	1.29	1.02	0.886	1	0.768	0.861	0.624	0.71	0.638	0.739	0.616	0.575	0.536	0.935	0.716	0.839	0.669	0.744	1.06	0.706
NCI-H596	0.963	0.903	0.832	0.972	0.726	0.568	0.514	0.771	0.686	0.896	0.661	0.659	0.671	0.768	0.761	0.841	0.844	0.726	0.931	0.733
NCI-H647	1.4	0.992	0.65	0.517	0.598	0.566	0.441	0.529	0.287	0.623	0.543	0.295	0.202	1.24	1.1	1.14	1.27	0.878	1.17	0.449
NCI-H727	0.474	0.492	0.462	0.455	1.03	1.12	1.07	1.17	1.24	0.382	–	0.397	0.382	0.919	0.931	0.887	0.985	0.8	0.402	0.401
NCI-H838	1.17	1.12	0.905	0.423	0.743	0.74	0.7	0.652	0.553	0.612	0.536	0.294	0.239	0.973	0.991	0.947	1.06	0.955	1.12	0.515
NCI-H1355	1.1	0.911	0.904	1.06	0.722	0.617	0.574	0.645	0.604	0.45	0.472	0.43	0.462	0.981	0.911	0.922	0.992	0.761	0.982	0.457
NCI-H1395	1	1.07	0.861	0.898	0.736	0.705	0.595	0.705	0.706	0.948	0.964	0.971	0.867	1.13	0.934	0.951	0.995	0.807	0.992	0.929
NCI-H1437	1.12	1.02	0.75	0.379	0.919	0.915	0.856	0.925	0.751	0.609	0.46	0.363	0.26	1.23	1.22	1.31	1.38	1.28	1.03	0.564
NCI-H1650	1.18	1.11	0.33	0.203	0.611	0.551	0.5	0.665	0.61	0.532	0.433	0.218	0.144	1.14	1.02	1.02	1.34	0.498	1.11	0.56

Cell Line	relative viability (Doxorubicin + Navitoclax; first compound 0.003162 µM)	relative viability (Doxorubicin + Navitoclax; first compound 0.01 µM)	relative viability (Doxorubicin + Navitoclax; first compound 0.03162 µM)	relative viability (Doxorubicin + Navitoclax; first compound 0.1 µM)	relative viability (BAY61-3606 + Vorinostat; first compound 0.02 µM)	relative viability (BAY61-3606 + Vorinostat; first compound 0.06325 µM)	relative viability (BAY61-3606 + Vorinostat; first compound 0.2 µM)	relative viability (BAY61-3606 + Vorinostat; first compound 0.6325 µM)	relative viability (BAY61-3606 + Vorinostat; first compound 2 µM)	relative viability (Doxorubicin + Trametinib; first compound 0.003162 µM)	relative viability (Doxorubicin + Trametinib; first compound 0.01 µM)	relative viability (Doxorubicin + Trametinib; first compound 0.03162 µM)	relative viability (Doxorubicin + Trametinib; first compound 0.1 µM)	relative viability (BAY61-3606 + Foretinib; first compound 0.02 µM)	relative viability (BAY61-3606 + Foretinib; first compound 0.06325 µM)	relative viability (BAY61-3606 + Foretinib; first compound 0.2 µM)	relative viability (BAY61-3606 + Foretinib; first compound 0.6325 µM)	relative viability (BAY61-3606 + Foretinib; first compound 2 µM)	relative viability (Doxorubicin + Navitoclax; first compound 0.001 µM)	relative viability (Doxorubicin + Trametinib; first compound 0.001 µM)
NCI-H1651	1.19	0.801	0.436	0.204	0.62	0.509	0.523	0.539	0.542	0.843	0.817	0.707	0.796	0.886	0.713	0.765	0.88	0.739	0.991	0.82
NCI-H1666	0.953	0.55	0.282	0.275	1.02	1.14	1.12	1.05	1.18	0.796	0.65	0.584	0.517	1.06	1.02	0.987	0.991	0.918	0.882	–
NCI-H1734	1.02	0.847	0.696	0.84	0.826	0.804	0.651	0.769	0.441	0.724	0.641	0.611	0.634	0.825	0.79	0.743	0.836	0.411	0.788	0.689
NCI-H1755	1.03	0.927	0.991	1.02	0.871	0.676	0.764	0.803	0.733	0.804	0.784	0.77	0.88	0.932	0.867	0.974	0.913	0.882	1	0.791
NCI-H1793	0.448	0.393	0.478	0.547	0.842	0.83	0.684	1.04	0.989	0.4	0.373	0.4	0.4	0.79	0.674	–	0.692	0.476	–	–
NCI-H1915	0.813	0.788	0.784	0.829	0.515	0.528	0.478	0.511	0.483	0.31	0.313	0.312	0.303	1.06	1.09	1.07	1.13	0.613	0.778	0.306
NCI-H1944	1.13	1.03	0.977	1.19	0.65	0.538	0.515	0.559	0.487	0.422	0.385	0.399	0.449	0.912	0.815	0.858	0.886	0.396	1.05	0.398
NCI-H1975	1.22	1.06	0.791	0.569	0.849	0.734	0.712	0.722	0.585	0.332	0.376	0.234	0.248	1.06	0.931	0.874	0.974	0.65	1.2	0.256
NCI-H1993	0.876	0.884	1.01	0.889	1.06	0.718	0.756	0.0488	0.67	–	0.501	0.473	0.513	0.818	0.772	0.712	0.794	0.66	0.947	0.667
NCI-H2009	1.15	1.17	0.962	0.604	0.703	0.833	0.714	0.734	0.697	0.287	0.268	0.171	0.153	1.34	1.31	1.22	1.26	1.06	1.21	0.294
NCI-H2023	1.05	0.886	0.482	0.16	0.856	0.671	0.638	0.82	0.468	0.513	0.437	0.151	0.11	0.864	0.906	1.03	0.812	0.812	0.956	0.456
NCI-H2085	1.24	1.09	0.882	1.01	0.885	0.766	0.796	0.839	0.811	0.557	0.564	0.472	0.496	1.07	0.947	0.995	0.871	0.917	1.28	0.623
NCI-H2087	1.05	1.05	0.967	0.918	0.673	1.03	0.727	0.359	0.647	0.201	0.158	0.172	0.166	1.21	1.08	1.05	1.06	0.924	0.973	0.17
NCI-H2126	0.826	0.864	0.884	0.928	0.799	0.761	0.733	0.747	0.619	0.572	0.561	0.526	0.601	1.4	1.21	1.06	1.13	0.959	0.853	0.6
NCI-H2170	0.726	0.567	0.389	0.597	0.835	0.752	0.842	0.83	0.739	0.953	0.887	0.756	0.959	0.993	1.03	1.02	0.523	0.782	0.584	0.98
